Results taken from ChEMBL document CHEMBL1201862, “PubChem BioAssay data set” (2004).
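96-well plates; 48 h exposure; 5 concentrations. Endpoints by linear interpolation between flanking doses. Not reached: highest tested concentration assigned. Abbreviation: GI50, concentration required for 50% inhibition of growth.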 Calls of active or inactive are those of the source. Rule as the data show it: active = GI50 up to about 1.1 µM and inactive = higher.

Experiments:
Experiment in all cases: NCI anticancer screen, dose series, 48 h
[1] = system: LOX IMVI
[2] = system: SW-620
[3] = system: MDA-N
[4] = system: HCT-15
[5] = system: CCRF-CEM
[6] = system: SR
[7] = system: TK-10
[8] = system: OVCAR-5
[9] = system: K562
[10] = system: NCI/ADR-RES
[11] = system: UO-31
[12] = system: PC-3
[13] = system: MCF7
[14] = system: BT-549
[15] = system: KM12
[16] = system: MOLT-4
[17] = system: MDA-MB-435
[18] = system: Malme-3M
[19] = system: U-251
[20] = system: OVCAR-3
[21] = system: SNB-19
[22] = system: NCI-H23
[23] = system: M14
[24] = system: SN12C
[25] = system: HL-60
[26] = system: HOP-92
[27] = system: OVCAR-4
[28] = system: NCI-H522
[29] = system: DU-145
[30] = system: NCI-H226
[31] = system: SK-MEL-2
[32] = system: SF-295
[33] = system: 786-0
[34] = system: OVCAR-8
[35] = system: SK-MEL-5
[36] = system: A549
[37] = system: IGROV-1
[38] = system: EKVX
[39] = system: SF-539
[40] = system: SK-OV-3
[41] = system: COLO 205
[42] = system: UACC-257
[43] = system: NCI-H460
[44] = system: UACC-62
[45] = system: HOP-62
[46] = system: A498
[47] = system: T47D
[48] = system: SNB-75
[49] = system: Hs-578T
[50] = system: SF-268
[51] = system: HT-29
[52] = system: CAKI-1
[53] = system: ACHN
[54] = system: HCT-116
[55] = system: SK-MEL-28
[56] = system: RPMI-8226
[57] = system: HCC 2998
[58] = system: MDA-MB-231
[59] = system: RXF 393

For `COc1ccccc1C1(C)SCc2nc3ccccc3n21` (stereo not given), the GI50 [1] was > 10 µM (inactive), the GI50 [2] was > 10 µM (inactive) and the GI50 [3] was > 10 µM (inactive). The GI50 [4] was greater than 10 µM, the GI50 [5] was > 10 µM (inactive) and the GI50 [6] was > 10 µM (inactive). The GI50 [7] was > 10 µM (inactive), the GI50 [8] was > 10 µM (inactive) and the GI50 [9] was > 10 µM (inactive). The GI50 [10] was > 10 µM (inactive), the GI50 [11] was > 10 µM (inactive) and the GI50 [12] was > 10 µM (inactive). For the same compound, the GI50 [13] was > 10 µM (inactive), the GI50 [14] was > 10 µM (inactive) and the GI50 [15] was > 10 µM (inactive). The GI50 [16] was > 10 µM (inactive), the GI50 [17] was > 10 µM (inactive) and the GI50 [18] was > 10 µM (inactive). For the same compound, the GI50 [19] was > 10 µM (inactive), the GI50 [20] was > 10 µM (inactive) and the GI50 [21] was > 10 µM (inactive). For the same compound, the GI50 [22] was > 10 µM (inactive), the GI50 [23] was > 10 µM (inactive) and the GI50 [24] was > 10 µM (inactive). For the same compound, the GI50 [25] was > 10 µM (inactive), the GI50 [26] was > 10 µM (inactive) and the GI50 [27] was > 10 µM (inactive). The GI50 [28] was > 10 µM (inactive), the GI50 [29] was > 10 µM (inactive) and the GI50 [30] was > 10 µM (inactive). The GI50 [31] was > 10 µM (inactive).

With `CC1(C)OP(=O)(c2ccccc2)C=C1Sc1ccc([N+](=O)[O-])cc1[N+](=O)[O-]` (stereo not given) the GI50 [1] was 36.6 µM (inactive), the GI50 [32] was 95.9 µM (inactive) and the GI50 [2] was 65.5 µM (inactive). For the same compound, the GI50 [3] was 71.8 µM (inactive), the GI50 [4] was 65.5 µM and the GI50 [33] was 38.6 µM (inactive). The GI50 [6] was 17.3 µM (inactive), the GI50 [7] was > 100 µM (inactive) and the GI50 [8] was > 100 µM (inactive). The GI50 [34] was 62.1 µM (inactive), the GI50 [35] was 42.7 µM (inactive) and the GI50 [9] was 27 µM (inactive). The GI50 [36] was > 100 µM (inactive), the GI50 [37] was > 100 µM (inactive) and the GI50 [38] was > 100 µM (inactive). The GI50 [39] was 33.7 µM (inactive), the GI50 [10] was 80.5 µM (inactive) and the GI50 [40] was > 100 µM (inactive). The GI50 [41] was > 100 µM (inactive), the GI50 [42] was > 100 µM (inactive) and the GI50 [43] was > 100 µM (inactive). For the same compound, the GI50 [12] was 65.3 µM (inactive), the GI50 [13] was 41.5 µM (inactive) and the GI50 [44] was 35 µM (inactive). The GI50 [15] was 98.2 µM (inactive), the GI50 [17] was 70 µM (inactive) and the GI50 [18] was 78.3 µM (inactive). The GI50 [19] was 54.7 µM (inactive), the GI50 [20] was 30.4 µM (inactive) and the GI50 [21] was > 100 µM (inactive). For the same compound, the GI50 [45] was > 100 µM (inactive), the GI50 [22] was 77.6 µM (inactive) and the GI50 [46] was > 100 µM (inactive). The GI50 [23] was 63.8 µM (inactive), the GI50 [24] was 45.9 µM (inactive) and the GI50 [25] was 15.9 µM (inactive). The GI50 [26] was 91.4 µM (inactive), the GI50 [47] was > 100 µM (inactive) and the GI50 [27] was 29.7 µM (inactive). For the same compound, the GI50 [48] was > 100 µM (inactive), the GI50 [49] was > 100 µM (inactive) and the GI50 [50] was 52.1 µM (inactive). The GI50 [51] was 45.6 µM (inactive), the GI50 [28] was 19 µM (inactive) and the GI50 [29] was 74.6 µM (inactive). For the same compound, the GI50 [52] was > 100 µM (inactive), the GI50 [53] was > 100 µM (inactive) and the GI50 [30] was > 100 µM (inactive). The GI50 [54] was 36.6 µM (inactive), the GI50 [55] was 85.1 µM (inactive) and the GI50 [31] was > 100 µM (inactive).

`Nc1ncnc2c1ncn2C1OC(CO)C2OC21` (stereo not given) was tested, and the GI50 [1] was > 100 µM (inactive), the GI50 [32] was > 100 µM (inactive) and the GI50 [2] was > 100 µM (inactive). The GI50 [3] was > 10 µM (inactive), the GI50 [4] was greater than 10 µM and the GI50 [33] was > 10 µM (inactive). The GI50 [5] was > 100 µM (inactive), the GI50 [56] was > 100 µM (inactive) and the GI50 [6] was > 100 µM (inactive). For the same compound, the GI50 [57] was > 100 µM (inactive), the GI50 [7] was > 100 µM (inactive) and the GI50 [58] was > 100 µM (inactive). For the same compound, the GI50 [8] was > 100 µM (inactive), the GI50 [34] was > 100 µM (inactive) and the GI50 [35] was > 100 µM (inactive). The GI50 [9] was 72.8 µM (inactive), the GI50 [36] was > 100 µM (inactive) and the GI50 [37] was > 100 µM (inactive). The GI50 [38] was > 100 µM (inactive), the GI50 [39] was > 100 µM (inactive) and the GI50 [10] was > 10 µM (inactive). For the same compound, the GI50 [40] was > 100 µM (inactive), the GI50 [41] was > 100 µM (inactive) and the GI50 [42] was > 100 µM (inactive). The GI50 [11] was > 100 µM (inactive), the GI50 [43] was > 10 µM (inactive) and the GI50 [12] was > 100 µM (inactive). For the same compound, the GI50 [13] was > 100 µM (inactive), the GI50 [44] was > 100 µM (inactive) and the GI50 [15] was > 100 µM (inactive). For the same compound, the GI50 [16] was > 100 µM (inactive), the GI50 [17] was > 10 µM (inactive) and the GI50 [18] was > 10 µM (inactive). For the same compound, the GI50 [19] was > 100 µM (inactive), the GI50 [20] was > 10 µM (inactive) and the GI50 [21] was > 100 µM (inactive). The GI50 [45] was > 100 µM (inactive), the GI50 [22] was > 100 µM (inactive) and the GI50 [46] was > 100 µM (inactive). The GI50 [23] was > 10 µM (inactive), the GI50 [24] was > 100 µM (inactive) and the GI50 [59] was > 100 µM (inactive). The GI50 [25] was > 100 µM (inactive), the GI50 [26] was > 100 µM (inactive) and the GI50 [47] was > 100 µM (inactive). For the same compound, the GI50 [27] was > 100 µM (inactive), the GI50 [48] was > 100 µM (inactive) and the GI50 [49] was > 100 µM (inactive). The GI50 [50] was > 100 µM (inactive), the GI50 [51] was > 100 µM (inactive) and the GI50 [28] was > 100 µM (inactive). For the same compound, the GI50 [29] was > 100 µM (inactive), the GI50 [52] was > 100 µM (inactive) and the GI50 [53] was > 100 µM (inactive). For the same compound, the GI50 [30] was > 100 µM (inactive), the GI50 [54] was > 100 µM (inactive) and the GI50 [55] was > 100 µM (inactive). The GI50 [31] was > 100 µM (inactive).
